In PubChem BioAssay AID330 (DTP/NCI, 2004):
Inconclusive results and toxic doses are left out.

System: P388 leukemia ip, CD2F1 mice, survival T/C
Assay: NCI In Vivo Anticancer Drug Screen. Data for tumor model P388 Leukemia (intraperitoneal) in CD2F1 (CDF1) mice
Conditions: endpoint: median survival time, higher = longer survival
Procedure, shortened: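 Mice carrying the transplanted tumor received test compound or vehicle. Survival was recorded in each group, and the value is the treated-group measurement divided by that of the vehicle-treated control group.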

[1] = dose: 100.0 mg/kg/injection, schedule: Q01DX009 (ip), vehicle: Klucel (hydroxypropylcellulose) (HPC)
[2] = dose: 200.0 mg/kg/injection, schedule: Q01DX009 (ip), vehicle: Klucel (hydroxypropylcellulose) (HPC)
[3] = dose: 100.0 mg/kg/injection, schedule: Q04DX003 (ip), vehicle: saline with Tween-80
[4] = dose: 200.0 mg/kg/injection, schedule: Q04DX003 (ip), vehicle: saline with Tween-80

N#CC1=C(N)CCC1
T/C (dose: 6.25 mg/kg/injection, schedule: Q01DX009 (ip), vehicle: saline with Tween-80): 100 % of control
T/C (dose: 12.5 mg/kg/injection, schedule: Q01DX009 (ip), vehicle: saline with Tween-80): 95 % of control

COc1ccc2[nH]c3cc4c(=O)c5cc(OC)ccc5[nH]c4cc3c(=O)c2c1
T/C (dose: 50.0 mg/kg/injection, schedule: Q01DX009 (ip), vehicle: Klucel (hydroxypropylcellulose) (HPC)): 96 % of control
T/C [1]: 100 % of control
T/C [2]: 100 % of control

O=C(/C=C/c1ccco1)C1C(=O)CCC1=O
T/C (dose: 50.0 mg/kg/injection, schedule: Q01DX005 (ip), vehicle: Klucel + Tween-80): 98 % of control
T/C (dose: 100.0 mg/kg/injection, schedule: Q01DX005 (ip), vehicle: Klucel + Tween-80): 104 % of control

C#CC(C)(C)NC(=O)NC12CC3CC(CC(C3)C1)C2
T/C (dose: 12.5 mg/kg/injection, schedule: Q01DX001 (ip), vehicle: saline with Tween-80): 94 % of control
T/C (dose: 25.0 mg/kg/injection, schedule: Q01DX001 (ip), vehicle: saline with Tween-80): 86 % of control
T/C (dose: 50.0 mg/kg/injection, schedule: Q01DX001 (ip), vehicle: saline with Tween-80): 89 % of control

CCOc1c(N=Nc2ccc(C)cc2)c(C)nn1C(=S)S
T/C (dose: 60.0 mg/kg/injection, schedule: Q01DX005 (ip), vehicle: Klucel (hydroxypropylcellulose) (HPC)): 96 % of control
T/C (dose: 120.0 mg/kg/injection, schedule: Q01DX005 (ip), vehicle: Klucel (hydroxypropylcellulose) (HPC)): 105 % of control
T/C (dose: 240.0 mg/kg/injection, schedule: Q01DX005 (ip), vehicle: Klucel (hydroxypropylcellulose) (HPC)): 97 % of control

CC(=O)N(C)c1ccc(NC(=O)Nc2cc(C)ccc2C)cc1
T/C (dose: 50.0 mg/kg/injection, schedule: Q01DX009 (ip), vehicle: saline): 91 % of control
T/C (dose: 100.0 mg/kg/injection, schedule: Q01DX009 (ip), vehicle: saline): 88 % of control

COCC1(C)CCCC2(C)C3=C(CCC(OC(C)=O)C3)CCC12 (stereo not given)
T/C (dose: 100.0 mg/kg/injection, schedule: Q04DX003 (ip), vehicle: suspension in saline): 100 % of control
T/C (dose: 200.0 mg/kg/injection, schedule: Q04DX003 (ip), vehicle: suspension in saline): 102 % of control
T/C (dose: 400.0 mg/kg/injection, schedule: Q04DX003 (ip), vehicle: suspension in saline): 102 % of control

CC1(C)C[C@H](OC2CCCCO2)[C@H]2O[C@@]2(C)C1 (stereo not given in full)
T/C (dose: 100.0 mg/kg/injection, schedule: Q04DX002 (ip), vehicle: saline): 103 % of control
T/C (dose: 200.0 mg/kg/injection, schedule: Q04DX002 (ip), vehicle: saline): 102 % of control
T/C (dose: 400.0 mg/kg/injection, schedule: Q04DX002 (ip), vehicle: saline): 96 % of control

S=C1SCN(C2CCCCC2)CN1C1CCCCC1
T/C [1]: 100 % of control
T/C [2]: 105 % of control
T/C (dose: 400.0 mg/kg/injection, schedule: Q01DX009 (ip), vehicle: Klucel (hydroxypropylcellulose) (HPC)): 107 % of control

O=C(O)CCN1C(=O)CCC1=O
T/C [3]: 100 % of control
T/C [4]: 95 % of control
T/C (dose: 400.0 mg/kg/injection, schedule: Q04DX003 (ip), vehicle: saline with Tween-80): 91 % of control

O=C1C(O)C(c2ccccc2)c2ccccc2N1c1ccccc1 (stereo not given)
T/C (dose: 100.0 mg/kg/injection, schedule: Q01DX001 (ip), vehicle: Klucel (hydroxypropylcellulose) (HPC)): 95 % of control
T/C (dose: 200.0 mg/kg/injection, schedule: Q01DX001 (ip), vehicle: Klucel (hydroxypropylcellulose) (HPC)): 96 % of control
T/C (dose: 400.0 mg/kg/injection, schedule: Q01DX001 (ip), vehicle: Klucel (hydroxypropylcellulose) (HPC)): 89 % of control

O=C(O)C(CSC(c1ccccc1)(c1ccccc1)c1ccccc1)N=Cc1ccccc1O (stereo not given)
T/C [3]: 168 % of control
T/C (dose: 150.0 mg/kg/injection, schedule: Q04DX003 (ip), vehicle: saline with Tween-80): 190 % of control
T/C [4]: 122 % of control

C=CC(C)CC(N)C(=O)O (stereo not given)
T/C (dose: 60.0 mg/kg/injection, schedule: Q01DX005 (ip), vehicle: saline): 123 % of control
T/C (dose: 120.0 mg/kg/injection, schedule: Q01DX005 (ip), vehicle: saline): 105 % of control
T/C (dose: 240.0 mg/kg/injection, schedule: Q01DX005 (ip), vehicle: saline): 104 % of control

COC(=O)c1ccc(SCCC(=O)CCl)cc1
T/C (dose: 50.0 mg/kg/injection, schedule: Q01DX009 (ip), vehicle: saline with Tween-80): 115 % of control
T/C (dose: 100.0 mg/kg/injection, schedule: Q01DX009 (ip), vehicle: saline with Tween-80): 116 % of control

CCC[CH2][Sn]([CH2]CCC)([O]c1ccccc1C=Nc1ccc(F)cc1)[O]c1ccccc1C=Nc1ccc(F)cc1
T/C (dose: 6.25 mg/kg/injection, schedule: Q01DX005 (ip), vehicle: saline with Tween-80): 116 % of control
T/C (dose: 12.5 mg/kg/injection, schedule: Q01DX005 (ip), vehicle: saline with Tween-80): 122 % of control
